From patent publication US20260226493A1, “HERBICIDE RESISTANT PLANTS” (SYNGENTA CROP PROTECTION AG, priority 2023, published 2026)

Columns and labels:
Chroococcidiopsis BioA = assay: BioA enzyme activity with DMSO or herbicide in vitro; type: biochemical, Chroococcidiopsis sp. CCMEE 29; settings: spermidine in substrate mix
Description: (§1) A pet-24 plasmid containing a DNA sequence encoding each identified variant mutant of BIO3-BIO1 derived from Arabidopsis thaliana from example 5 above, as shown in Table 13 below and as shown in full in SEQ ID NOs: 15 to 155, codon-optimised for expression in E. coli, with an N-terminal 6×His-tag and thrombin cleavage site and under control of a T7 promoter, and was synthesised by Twist Bioscience, in a similar manner to SEQ ID NO:311. These plasmids were then expressed in E. coli BL21 (DE3) bioA with 50 μg/mL kanamycin and 25 μg/mL chloramphenicol selection. Overnight cultures grown at 37° C. were used to inoculate 8×500 mL AIM in shake flasks at a ratio of 1:100. Cultures were grown at 37° C., 200 rpm for 3.5 hours and then overnight at 20° C. Cells were harvested by centrifugation for 30 minutes at 10 000 g. Cells were stored at −80° C. until extraction. 30 g of cell pellet from was thawed in 120 mL of IMAC buffer A (20 mM HEPES pH7.5, 25 mM imidazole, 500 mM sodium chloride, 0.15 mM pyridoxal phosphate, 0.5 mM TCEP, 1× complete Protease Inhibitor Tablet (Roche)). The resuspension was passed through a cell disrupter at 18 000 PSI and centrifuged at 50 000 g for 25 minutes at 4° C. The His-tagged BIO3-BIO1 protein was purified from the extract supernatant on an AKTA avant chromatography system (Cytiva) using a HisTrap FF column and eluted in IMAC buffer B ((20 mM HEPES pH7.5, 500 mM imidazole, 500 mM sodium chloride, 0.15 mM pyridoxal phosphate, 0.5 mM TCEP) followed by SEC using a HiLoad 26/60 Superdex200 column in SEC buffer (25 mM HEPES pH7.5, 150 mM sodium chloride, 0.15 mM pyridoxal phosphate, 0.5 mM TCEP). Protein concentration was measured and calculated using the absorbance at 280 nm. Extracts were diluted 1 in 4 and 10 uL was analysed by SDS PAGE.
(§2) To measure BIO3-BIO1 mutant enzyme activity in the presence of herbicide, herbicides were incubated with 20 μL of enzyme mix (100 mM EPPS pH 8.6, 0.1 mM pyridoxal phosphate, 0.1 mg/mL BSA, 50 nM BIO3-BIO1 enzyme) for 10 minutes at 20° C. in a well of a 96-well half-area black plate, followed by the addition of 20 μL of substrate mix (final concentration of 100 mM EPPS pH 8.6, 0.1 mM pyridoxal phosphate, 0.1 mg/mL BSA, 100 μM spermidine, 20 μM KAPA, 100 mM NaCO3) and further incubation for 75 minutes at 20° C. The reaction was terminated by the addition of 50 μL of derivatisation mix (final concentration of 250 mM borate NaOH pH 9.4, 3.6 mM o-phthalaldehyde, 7 mM β-mercaptoethanol, 17% (v/v) ethanol, 3.6% (v/v) methanol). The fluorescent product produced by the reaction of DAPA with o-phthalaldehyde and 7 mM β-mercaptoethanol was measured at 470 nm after excitation at 410 nm. The percentage inhibition was calculated as the activity in the presence of one of three concentrations of each herbicide compound A to M (note that the compounds labelled as A to M are identified hereinabove in the relevant section of the description) as a percentage of the activity in DMSO (Table 12 and 13). The percentage activity versus WT was also calculated and is shown in Table 13 and 14 (NT indicates mutation not tested in table 13, note that these mutations are tested at different compound concentrations for compounds L, M and C, and the results are shown in table 14).
Protein of Escherichia coli BioA (SEQ ID NO:159), Pantoea ananatis BioA (SEQ ID NO:167), Streptomyces viridochromogenes BioA (SEQ ID NO:170), Cryptosporidium andersoni BioA (SEQ ID NO:160), Stenotrophomonas maltophilia BioA (SEQ ID NO:171), Chroococcidiopsis BioA (SEQ ID NO:184), Pedobacter hartonius BioA (SEQ ID NO:181), Chitinophaga filiformis BioA (SEQ ID NO:180), Tenacibaculum adriaticum BioA (SEQ ID NO:185) and Bacillus subtilis BioA (SEQ ID NO:166) was prepared using the method in Example 6. BioA enzyme activity in the presence of herbicide or DMSO in vitro for each of the proteins was assayed according to the enzyme assay method in Example 6, except in some reactions spermidine was replaced with 2 mM S-Adenosyl methionine.

[1] = biological target: T1, Arabidopsis thaliana BIO3-BIO1 (BioDA) mutants (Arabidopsis thaliana, UniProt B0F481, A609H); assay: BIO3-BIO1 mutant enzyme activity in the presence of herbicide, percentage inhibition (fluorometric DAPA assay); type: biochemical; settings: read-out: percentage inhibition
T1 construct: with the predicted N-terminal mitochondrial transit peptide removed; 6xHis-tag (N); thrombin cleavage site (N); made in house; host or cells: E. coli BL21 (DE3) bioA
Description: as §1, §2

[2] = biological target: T2, Arabidopsis thaliana BIO3-BIO1 (BioDA) mutants (Arabidopsis thaliana, UniProt B0F481, A609W); assay: as above; type: biochemical; settings: read-out: percentage inhibition
T2 construct: with the predicted N-terminal mitochondrial transit peptide removed; 6xHis-tag (N); thrombin cleavage site (N); made in house; host or cells: E. coli BL21 (DE3) bioA
Description: as §1, §2

[3] = biological target: T3, Arabidopsis thaliana BIO3-BIO1 (BioDA) mutants (Arabidopsis thaliana, UniProt B0F481, W392G); assay: as above; type: biochemical; settings: read-out: percentage inhibition
T3 construct: with the predicted N-terminal mitochondrial transit peptide removed; 6xHis-tag (N); thrombin cleavage site (N); made in house; host or cells: E. coli BL21 (DE3) bioA
Description: as §1, §2

[4] = biological target: T4, Arabidopsis thaliana BIO3-BIO1 (BioDA) mutants (Arabidopsis thaliana, UniProt B0F481, S509G); assay: as above; type: biochemical; settings: read-out: percentage inhibition
T4 construct: with the predicted N-terminal mitochondrial transit peptide removed; 6xHis-tag (N); thrombin cleavage site (N); made in house; host or cells: E. coli BL21 (DE3) bioA
Description: as §1, §2

[5] = biological target: T5, Arabidopsis thaliana BIO3-BIO1 (BioDA) mutants (Arabidopsis thaliana, UniProt B0F481, S509R); assay: as above; type: biochemical; settings: read-out: percentage inhibition
T5 construct: with the predicted N-terminal mitochondrial transit peptide removed; 6xHis-tag (N); thrombin cleavage site (N); made in house; host or cells: E. coli BL21 (DE3) bioA
Description: as §1, §2

[6] = biological target: T6, Arabidopsis thaliana BIO3-BIO1 (BioDA) mutants (Arabidopsis thaliana, UniProt B0F481, T512Q); assay: as above; type: biochemical; settings: read-out: percentage inhibition
T6 construct: with the predicted N-terminal mitochondrial transit peptide removed; 6xHis-tag (N); thrombin cleavage site (N); made in house; host or cells: E. coli BL21 (DE3) bioA
Description: as §1, §2

[7] = biological target: T7, Arabidopsis thaliana BIO3-BIO1 (BioDA) mutants (Arabidopsis thaliana, UniProt B0F481, W392C); assay: as above; type: biochemical; settings: read-out: percentage inhibition
T7 construct: with the predicted N-terminal mitochondrial transit peptide removed; 6xHis-tag (N); thrombin cleavage site (N); made in house; host or cells: E. coli BL21 (DE3) bioA
Description: as §1, §2

[8] = biological target: T8, Arabidopsis thaliana BIO3-BIO1 (BioDA) mutants (Arabidopsis thaliana, UniProt B0F481, T512G); assay: as above; type: biochemical; settings: read-out: percentage inhibition
T8 construct: with the predicted N-terminal mitochondrial transit peptide removed; 6xHis-tag (N); thrombin cleavage site (N); made in house; host or cells: E. coli BL21 (DE3) bioA
Description: as §1, §2

T2 sequence (B0F481 23-833 A609W): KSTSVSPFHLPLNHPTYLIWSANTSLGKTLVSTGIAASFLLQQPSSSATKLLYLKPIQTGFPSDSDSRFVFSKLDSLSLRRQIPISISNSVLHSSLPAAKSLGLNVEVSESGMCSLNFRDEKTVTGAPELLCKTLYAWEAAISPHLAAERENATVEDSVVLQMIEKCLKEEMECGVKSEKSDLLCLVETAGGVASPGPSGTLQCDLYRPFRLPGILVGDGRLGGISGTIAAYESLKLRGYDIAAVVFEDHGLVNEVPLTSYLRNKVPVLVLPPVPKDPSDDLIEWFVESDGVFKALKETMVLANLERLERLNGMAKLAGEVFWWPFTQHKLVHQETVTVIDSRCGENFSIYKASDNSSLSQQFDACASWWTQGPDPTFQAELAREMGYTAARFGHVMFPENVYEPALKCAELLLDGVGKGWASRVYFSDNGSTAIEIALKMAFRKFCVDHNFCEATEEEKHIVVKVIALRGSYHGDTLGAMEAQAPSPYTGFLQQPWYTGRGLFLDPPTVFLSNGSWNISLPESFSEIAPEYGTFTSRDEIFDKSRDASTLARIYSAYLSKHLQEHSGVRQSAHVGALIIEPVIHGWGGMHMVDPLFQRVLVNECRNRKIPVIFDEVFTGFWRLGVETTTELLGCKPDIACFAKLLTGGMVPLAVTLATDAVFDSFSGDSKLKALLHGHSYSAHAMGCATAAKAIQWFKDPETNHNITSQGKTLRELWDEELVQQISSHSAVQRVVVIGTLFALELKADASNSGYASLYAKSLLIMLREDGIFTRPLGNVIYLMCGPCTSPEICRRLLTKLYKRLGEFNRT
T4 sequence (B0F481 23-833 S509G): as the sequence (B0F481 23-833 A609W) above, with S487G, W587A counted along it
T5 sequence (B0F481 23-833 S509R): as the sequence (B0F481 23-833 A609W) above, with S487R, W587A counted along it
T6 sequence (B0F481 23-833 T512Q): as the sequence (B0F481 23-833 A609W) above, with T490Q, W587A counted along it
T7 sequence (B0F481 23-833 W392C): as the sequence (B0F481 23-833 A609W) above, with W370C, W587A counted along it
T1 sequence (B0F481 23-833 A609H): as the sequence (B0F481 23-833 A609W) above, with W587H counted along it
T8 sequence (B0F481 23-833 T512G): as the sequence (B0F481 23-833 A609W) above, with T490G, W587A counted along it
T3 sequence (B0F481 23-833 W392G): as the sequence (B0F481 23-833 A609W) above, with W370G, W587A counted along it

In the case of `CCn1c(Cn2ccc(C(F)(F)F)n2)cc(=O)c(C(=O)O)c1-c1ccc(Cl)c(Cl)c1` [Compound L, 2-(3,4-dichlorophenyl)-1-ethyl-4-oxo-6-[[3-(trifluoromethyl)pyrazol-1-yl]methyl]pyridine-3-carboxylic acid], the “% Inhibition relative to DMSO treatment” value (Chroococcidiopsis BioA; 0.5 μM) is reported as 15%, the inhibition at 0.01 µM [1] is reported as 0% and the inhibition at 0.075 µM [1] is reported as 0%. The inhibition at 0.5 µM [1] was 0%, the inhibition at 0.01 µM [2] was 35% and the inhibition at 0.075 µM [2] was 46%. The inhibition at 0.5 µM [2] was 66%.

In the case of `C[C@@H](N)COc1cccc(C(=O)O)n1.Cl.Cl` [Compound E, [(1R)-2-(6-carboxypyridin-1-ium-2-yl)oxy-1-methyl-ethyl]ammonium dichloride], the “% Inhibition relative to DMSO treatment” value (Chroococcidiopsis BioA; 200 μM) is reported as 26%.

In the case of `CCOC(=O)c1nn(-c2ccc3c(c2)OC(F)(F)C(F)(F)O3)c2cccc(C(C)=O)c2c1=O` [Compound A, ethyl 5-acetyl-4-oxo-1-(2,2,3,3-tetrafluoro-1,4-benzodioxin-6-yl)cinnoline-3-carboxylate], the “% Inhibition relative to DMSO treatment” value (Chroococcidiopsis BioA; 25 μM) is reported as 0%, the inhibition at 1 µM [3] is reported as 56% and the inhibition at 1 µM [4] is reported as 36%. It also gave an inhibition at 1 µM [1] of 0%, an inhibition at 1 µM [5] of 15% and an inhibition at 1 µM [6] of 49%. It also gave an inhibition at 1 µM [2] of 34%, an inhibition at 1 µM [7] of 42% and an inhibition at 1 µM [8] of 5%.

For `CCn1c(-c2ccc(Cl)c(Cl)c2)c(C(=O)O)c(=O)c2cc(F)ccc21` [Compound M, 2-(3,4-dichlorophenyl)-1-ethyl-6-fluoro-4-oxo-quinoline-3-carboxylic acid], the “% Inhibition relative to DMSO treatment” value (Chroococcidiopsis BioA; 0.5 μM) was 10%, the inhibition at 0.2 µM [3] was 0% and the inhibition at 1 µM [3] was 7%. It also gave an inhibition at 5 µM [3] of 12%, an inhibition at 0.2 µM [4] of 28% and an inhibition at 1 µM [4] of 47%. For the same compound, the inhibition at 5 µM [4] was 71%, the inhibition at 0.2 µM [1] was 7% and the inhibition at 1 µM [1] was 2%. For the same compound, the inhibition at 5 µM [1] was 25%, the inhibition at 0.2 µM [5] was 48% and the inhibition at 1 µM [5] was 82%. For the same compound, the inhibition at 5 µM [5] was 96%, the inhibition at 0.2 µM [6] was 49% and the inhibition at 1 µM [6] was 91%. The inhibition at 5 µM [6] was 99%, the inhibition at 0.2 µM [2] was 24% and the inhibition at 1 µM [2] was 31%. The inhibition at 5 µM [2] was 52%, the inhibition at 0.2 µM [7] was 0% and the inhibition at 1 µM [7] was 17%. It also gave an inhibition at 5 µM [7] of 27%, an inhibition at 0.2 µM [8] of 9% and an inhibition at 1 µM [8] of 39%. The inhibition at 5 µM [8] was 77%.

`CCn1c(C)c(-c2ccc(F)cc2F)c(=O)c(C(=O)O)c1-c1ccc(Cl)c(Cl)c1` [Compound C, 2-(3,4-dichlorophenyl)-5-(2,4-difluorophenyl)-1-ethyl-6-methyl-4-oxo-pyridine-3-carboxylic acid] was tested, and the “% Inhibition relative to DMSO treatment” value (Chroococcidiopsis BioA; 0.5 μM) was 2%, the inhibition at 0.2 µM [3] was 0% and the inhibition at 1 µM [3] was 20%. The inhibition at 5 µM [3] was 69%, the inhibition at 0.2 µM [4] was 20% and the inhibition at 1 µM [4] was 53%. The inhibition at 5 µM [4] was 75%, the inhibition at 0.2 µM [1] was 0% and the inhibition at 1 µM [1] was 7%. It also gave an inhibition at 5 µM [1] of 20%, an inhibition at 0.2 µM [5] of 42% and an inhibition at 1 µM [5] of 87%. It also gave an inhibition at 5 µM [5] of 98%, an inhibition at 0.2 µM [6] of 53% and an inhibition at 1 µM [6] of 96%. For the same compound, the inhibition at 5 µM [6] was 100%, the inhibition at 0.2 µM [2] was 21% and the inhibition at 1 µM [2] was 33%. It also gave an inhibition at 5 µM [2] of 38%, an inhibition at 0.2 µM [7] of 20% and an inhibition at 1 µM [7] of 55%. The inhibition at 5 µM [7] was 87%, the inhibition at 0.2 µM [8] was 17% and the inhibition at 1 µM [8] was 57%. It also gave an inhibition at 5 µM [8] of 92%.

In the case of `CCn1c(C)c(-c2cc(OC(F)(F)F)ccc2Cl)c(=O)c(C(=O)O)c1-c1ccc(Cl)c(Cl)c1` [Compound D, 5-[2-chloro-5-(trifluoromethoxy)phenyl]-2-(3,4-dichlorophenyl)-1-ethyl-6-methyl-4-oxo-pyridine-3-carboxylic acid], the “% Inhibition relative to DMSO treatment” value (Chroococcidiopsis BioA; 0.5 μM) is reported as 0%.

With `CC(O)C(N)CCCCC(=O)O.Cl` (stereo not drawn) [Compound B, [5-carboxy-1-(1-hydroxyethyl)pentyl]ammonium chloride] the “% Inhibition relative to DMSO treatment” value (Chroococcidiopsis BioA; 200 μM) was 99%.
